# Legend:
# Format in all cases: in vivo
# [1] = system: emetic response to apomorphine; assay: Anti-emetic activity in the dog (abolition of emetic response to apomorphine); settings: for ED50: Canis lupus familiaris, sc, apomorphine emesis
# Protocol: 2. Anti- emetic activity in the dog
# (a) Compounds were tested in the dog for their ability to abolish the emetic response to apomorphine.
# [2] = system: stereotype behaviour induced by apomorphine (dopamine receptor blockade in the central nervous system); assay: Inhibition of stereotype behaviour induced by apomorphine; settings: rat; for Inhibition of Stereotype Behaviour, active dose: s.c., apomorphine induced, active doses (mg/kg)
# Protocol: (§1) 1. Compounds prepared in the Examples were tested for the following pharmacological activities in the rat:
# (c) Inhibition of stereotype behaviour induced by apomorphine
# This is indicative of dopamine receptor blockade in the central nervous system.
# intragastric pressure [3] = assay: Increase in intragastric pressure in the rat; settings: p.o., active doses (mg/kg)
# intragastric pressure [4] = assay: Increase in intragastric pressure in the rat; settings: s.c., active doses (mg/kg)
# Protocol: as §1
# (a) Increase in intragastric pressure
# Intragastric pressure changes were recorded from previously starved conscious but restrained rats using a saline filled catheter inserted into the lumen of the stomach via a permanent gastric fistula. The catheter was connected to a physiological pressure transducer and pressure changes recorded on a hot wire pen recorder. In each animal a pre dose period of 40 minutes was allowed to obtain a measure of spontaneous activity. An index of activity was obtained by measuring the average height of pressure waves during 10 minute periods. Values for 4 such periods were obtained during assessment of spontaneous activity and for the 40 minute period after the subcutaneous administration of the Compounds. Student "t" test was applied to the difference in average values obtained for spontaneous and post Compound activity.
# [5] = system: apomorphine induced delay in gastric emptying; assay: Increase in gastric emptying - reversal of apomorphine induced delay in gastric emptying of a test meal; settings: rat, s.c., apomorphine HCl 5 mg/kg s.c., active doses (mg/kg); for Increase in Gastric Emptying, active dose (slightly active): slightly active at this dose
# Protocol: as §1
# (b) Increase in gastric emptying-reversal of apomorphine induced delay in gastric emptying of a test meal.
# Rats equipped with chronic gastric fistual were used and it was through this that 5 ml of a test meal (5 ml phosphate buffer at pH 9) was administered and recovered. The % recovery of the standard meal after remaining in the stomach for 10 minutes was taken as an index of gastric emptying. Delay in gastric emptying was induced by the administration of Apomorphine HCl (5 mg/kg subcutaneously) and was given 15 minutes prior to the subcutaneous administration of the Compound. The % recoveries of the test meal was determined at 15-25 and 45-55 minutes post dosing with the Compound and compared with vehicle only dosed animals set up simultaneously. Six animals were used for each group.
# [6] = system: amphetamine induced stereotypy; assay: Antagonism of Amphetamine Stereotypy; settings: rats, 10 mg/kg subcutaneously; d-amphetamine 10 mg/kg s.c.
# Protocol: Antagonism of Amphetamine Stereotypy
# Based on method of Jansen, Niemegeers and Schellekens (1966), Arzneimittel Forsch., 15, pp. 104-117. Rats were given compound 15 minutes prior to subcutaneous injection of d-amphetamine (10 mg/kg). 30 minutes and 1 hour after the amphetamine, the degree of stereotyped behaviour was scored according to the method of Costal, Naylor and Olley (1972). Europ. J. Pharmacol., 18, pp. 83-94. The percentage inhibition of stereotypy at the respective time interval was calculated.
# [7] = system: catapresan induced fighting behaviour; assay: Catapresan Test (catapresan induced fighting behaviour); settings: Mus musculus, po; mice, orally; catapresan 20-25 mg/kg intravenously; read-out: ED50, inhibition of catapresan induced fighting behaviour
# Protocol: Catapresan (20-25 mg/kg intravenously) was used to induce fighting behaviour in mice. The fighting was assessed as the biting of a dead mouse placed in the cage and was given a score of 1 or 2 depending on intensity. Compound effect was measured as percentage inhibition of fighting compared to that with control animals and the dose reducing fighting by 50% was determined graphically.
structure (smiles),measurement,setting,value
"COc1cc(N)c(Cl)cc1C(=O)NN1CCN(Cc2ccccc2)CC1 [Example 1, 4-Amino-5-chloro-2-methoxy-N-[4-benzyl-1-piperazinyl]benzamide]",ED50,[1],0.0125 mg/kg
same,"Inhibition of Stereotype Behaviour, active dose",[2],0.625 mg
"COc1cc(N)c(Cl)cc1C(=O)NN1CCN(C)CC1 [Example 2, 4-Amino-5-chloro-2-methoxy-N-[4-methyl-1-piperazinyl]benzamide]",ED50,[1],8 mg/kg
same,Inhibition of Stereotype Behaviour,[2]; at 100 mg s.c.,Inactive
same,"Increase in Intra-gastric Pressure, active dose",intragastric pressure [3],20 mg/kg
same,"Increase in Intra-gastric Pressure, active dose",intragastric pressure [4],1 mg/kg
"COc1cc(N)c(Cl)cc1C(=O)NN1CCN(C)CC1 [Example 4, 4-amino-5-chloro-2-methoxy-N-[4-methyl-1-piperazinyl]benzamide]","Increase in Intra-gastric Pressure, active dose",intragastric pressure [3],10 mg/kg
"CCN1CCN(NC(=O)c2cc(Cl)c(N)cc2OC)CC1 [Example 5, 4-Amino-5-chloro-2-methoxy-N-[4-ethyl-1-piperazinyl]benzamide]",Inhibition of Stereotype Behaviour,[2]; at 50 mg s.c.,Inactive
same,"Increase in Intra-gastric Pressure, active dose",intragastric pressure [4],50 mg/kg
"CCCCN1CCN(NC(=O)c2cc(Cl)c(N)cc2OC)CC1 [Example 6, 4-Amino-5-chloro-2-methoxy-N-[4-n-butyl-1-piperazinyl]benzamide]",ED50,[1],1 mg/kg
same,Inhibition of Stereotype Behaviour,[2]; at 25 mg s.c.,Inactive
same,"Increase in Intra-gastric Pressure, active dose",intragastric pressure [4],5 mg/kg
"COc1cc(N)c(Cl)cc1C(=O)NN1CCN(Cc2ccc(Cl)cc2)CC1 [Example 7, 4-Amino-5-chloro-2-methoxy-N-{[4-(4-chlorobenzyl)]1-piperazinyl}benzamide]","Inhibition of Stereotype Behaviour, active dose",[2],50 mg
"COc1ccc(CN2CCN(NC(=O)c3cc(Cl)c(N)cc3OC)CC2)cc1 [Example 8, 4-Amino-5-chloro-2-methoxy-N-[4-(4-methoxybenzyl)-1-piperazinyl]benzamide]","Inhibition of Stereotype Behaviour, active dose",[2],3 mg
"COc1cc(N)c(Cl)cc1C(=O)NN1CCCN(C)CC1 [Example 9, 4-Amino-5-chloro-2-methoxy-N-[4-methyl-1-(1,4-diazacycloheptyl)]benzamide]",Anti-emetic activity,"[1]; at 2 mg/kg s.c., inhibition of no. of vomits only",slight activity
same,Inhibition of Stereotype Behaviour,[2]; at 25 mg s.c.,Inactive
same,"Increase in Intra-gastric Pressure, active dose",intragastric pressure [4],10 mg/kg
"COc1cc(N)c(Cl)cc1C(=O)NN1CCN(Cc2cccs2)CC1 [Example 11, 4-Amino-5-chloro-2-methoxy-N-[4-(2-thenyl)-1-piperazinyl]-benzamide]",Inhibition of Stereotype Behaviour,[2]; at 50 mg s.c.,Inactive
same,"Increase in Intra-gastric Pressure, active dose (slightly active)",intragastric pressure [4]; slightly active at this dose,50 mg
"COc1cc(N)c(Cl)cc1C(=O)NN1CCN(Cc2ccsc2)CC1 [Example 12, 4-Amino-5-chloro-2-methoxy-N-[4-(3-thenyl)-1-piperazinyl]-benzamide]","Inhibition of Stereotype Behaviour, active dose",[2],50 mg
"CCCCCN1CCN(NC(=O)c2cc(Cl)c(N)cc2OC)CC1 [Example 13, 4-amino-5-chloro-2-methoxy-N-[4-(1-pentyl)-1-piperazinyl]-benzamide]",ED50,[1],0.36 mg/kg
same,"Inhibition of Stereotype Behaviour, active dose",[2],50 mg
"COc1cc(N)c(Cl)cc1C(=O)NN1CCN(Cc2ccc(F)cc2)CC1 [Example 14, 4-amino-5-chloro-2-methoxy-N-[4-(4-fluorobenzyl)-1-piperazinyl]-benzamide]","Inhibition of Stereotype Behaviour, active dose",[2],50 mg
"CCCN1CCN(NC(=O)c2cc(Cl)c(N)cc2OC)CC1 [Example 15, 4-amino-5-chloro-2-methoxy-N-[4-(1-propyl)-1-piperazinyl]-benzamide]",Inhibition of Stereotype Behaviour,[2]; at 50 mg s.c.,Inactive
same,"Increase in Intra-gastric Pressure, active dose",intragastric pressure [4],10 mg/kg
same,"Increase in Gastric Emptying, active dose (slightly active)",[5],50 mg
"COc1cc(N)c(Cl)cc1C(=O)NN1CCN(C(C)C)CC1 [Example 16, 4-amino-5-chloro-2-methoxy-N-[4-(2-propyl)-1-piperazinyl]-benzamide]",Inhibition of Stereotype Behaviour,[2]; at 50 mg s.c.,Inactive
same,"Increase in Intra-gastric Pressure, active dose",intragastric pressure [4],5 mg/kg
"COc1cc(N)c(Cl)cc1C(=O)NN1CC[N+](C)(C)CC1.[Br-] [Example 17, 4-Amino-5-chloro-2-methoxy-N-[4-methyl-1-piperazinyl]-benzamide methobromide]",Inhibition of Stereotype Behaviour,[2]; at 50 mg s.c.,Inactive
same,"Increase in Intra-gastric Pressure, active dose",intragastric pressure [4],0.5 mg/kg
"COc1cc(N)c(Cl)cc1C(=O)NN1CC[N+](C)(Cc2ccccc2)CC1.[Br-] [Example 18, 4-Amino-5-chloro-2-methoxy-N-[4-methyl-1-piperazinyl]-benzamide benzobromide]",Inhibition of Stereotype Behaviour,[2]; at 50 mg s.c.,Inactive
same,"Increase in Intra-gastric Pressure, active dose",intragastric pressure [4],25 mg/kg
same,"Increase in Gastric Emptying, active dose",[5],25 mg
"CCCC[N+]1(C)CCN(NC(=O)c2cc(Cl)c(N)cc2OC)CC1.[Br-] [Example 19, 4-Amino-5-chloro-2-methoxy-N-[4-n-butyl-1-piperazinyl]-benzamide methobromide]",Inhibition of Stereotype Behaviour,[2]; at 50 mg s.c.,Inactive
same,"Increase in Intra-gastric Pressure, active dose",intragastric pressure [4],1 mg/kg
same,"Increase in Gastric Emptying, active dose (slightly active)",[5],50 mg
"COc1cc(N)c(Cl)cc1C(=O)NN1CCN(CCC(C)C)CC1 [Example 20, 4-Amino-5-chloro-2-methoxy-N-[4-(3-methylbutyl)-1-piperazinyl]-benzamide]",ED50,[1],0.35 mg/kg
"COc1cc(N)c(Br)cc1C(=O)NN1CCN(C)CC1 [Example 21, 4-Amino-5-bromo-2-methoxy-N-[4-methyl-1-piperazinyl]-benzamide hemihydrate]",Inhibition of Stereotype Behaviour,[2]; at 50 mg s.c.,Inactive
same,"Increase in Intra-gastric Pressure, active dose",intragastric pressure [4],5 mg/kg
"CCCCN1CCCN(NC(=O)c2cc(Cl)c(N)cc2OC)CC1 [Example 22, 4-Amino-5-chloro-2-methoxy-N-[4-n-butyl-1-(1-4-diazocycloheptyl)]benzamide]",Inhibition of apomorphine induced emesis,[1]; at 5 mg/kg subcutaneously,completely inhibited
"COc1cc(N)c(Cl)cc1C(=O)NN1CCN(Cc2ccc(N(C)C)cc2)CC1 [Example 23, 4-Amino-5-chloro-2-methoxy-N-[4-(4-dimethylaminobenzyl)-1-piperazinyl]benzamide]",Inhibition of amphetamine induced stereotypy,[6],25%
same,ED50,[7],60 mg/kg
